This is an account of results in ChEMBL document CHEMBL6121059, “Small Molecule Modulators of AMP-Activated Protein Kinase (AMPK) Activity and Their Potential in Cancer Therapy” (J Med Chem, 2025).

Where only a bound is given, the exact number is not on record here.

Experiment [1] has as its target 5'-AMP-activated protein kinase catalytic subunit alpha-1 (Homo sapiens, UniProt Q13131). Kind of experiment: Inhibition of AMPKalpha1 (unknown origin).
In experiment [2] the target is Leucine-rich repeat serine/threonine-protein kinase 2 (Homo sapiens) (UniProt Q5S007). Kind of experiment: Activation of LRRK2 (unknown origin) at 10 uM relative to control.
Experiment [3] concerns the target Serine/threonine-protein kinase N1 (Homo sapiens) (UniProt Q16512). Kind of experiment: Activation of PRK1 (unknown origin) at 10 uM relative to control.
Experiment [4] deals with T1, TGF-beta receptor type-1 (Homo sapiens) (UniProt P36897).
T1 sequence (whole entry): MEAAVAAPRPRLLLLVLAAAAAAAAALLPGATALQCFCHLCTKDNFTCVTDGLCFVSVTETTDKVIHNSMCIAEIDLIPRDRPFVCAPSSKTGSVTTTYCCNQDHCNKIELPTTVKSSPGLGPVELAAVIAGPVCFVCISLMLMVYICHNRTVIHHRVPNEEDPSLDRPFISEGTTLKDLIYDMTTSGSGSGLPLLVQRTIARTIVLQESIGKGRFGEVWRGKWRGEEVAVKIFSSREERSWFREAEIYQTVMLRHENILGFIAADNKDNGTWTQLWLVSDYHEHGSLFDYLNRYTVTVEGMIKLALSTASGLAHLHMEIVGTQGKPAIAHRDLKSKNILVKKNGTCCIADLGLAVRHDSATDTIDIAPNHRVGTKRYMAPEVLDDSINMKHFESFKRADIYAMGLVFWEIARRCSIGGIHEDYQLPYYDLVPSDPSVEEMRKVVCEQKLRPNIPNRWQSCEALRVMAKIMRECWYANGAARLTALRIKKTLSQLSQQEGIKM
Kind of experiment: Inhibition of ALK5 (unknown origin) at 10 uM relative to control.

Experiment [5] addresses Serine/threonine-protein kinase PAK 1 (Homo sapiens) (UniProt Q13153). Kind of experiment: Activation of PAK1 (unknown origin) at 10 uM relative to control.
The species entered for experiment [6] is Homo sapiens. Kind of experiment: Inhibition of SRC (unknown origin) at 10 uM relative to control.
The target of experiment [7] is Epithelial discoidin domain-containing receptor 1 (Homo sapiens) (UniProt Q08345). Kind of experiment: Inhibition of DDR1 (unknown origin) at 10 uM relative to control.
A short description of experiment [8]: Inhibition of full length GST-tagged human AMPKalpha2/beta1/gamma1 using HMRSAMSFAEPG biotinylated peptide as substrate in presence of 10 uM ATP by TR-FRET assay.
For experiment [9], the system named is VCaP. Kind of experiment: Antiproliferative activity against human VCaP cells assessed as reduction in cell viability incubated for 3 days by cell-titer glo assay. The format is functional, cell-based. Conditions: 72 h.
For experiment [10], the system named is COLO 320. Kind of experiment: Inhibition of cellular AMPK in human COLO 320 cells assessed as reduction in pACC1 levels in cell lysates by HTRF assay. Background: TR-FRET usually uses a lanthanide donor and a delayed reading to cut background.
Experiment [11] in a line: Inhibition of full length GST-tagged human AMPKalpha2/beta1/gamma1 using HMRSAMSFAEPG biotinylated peptide as substrate in presence of 2 mM ATP by TR-FRET assay.
Experiment [12] has as its system LNCaP. Kind of experiment: Inhibition of cellular AMPK in human LNCaP cells assessed as reduction in pACC1 levels in cell lysates by HTRF assay.
In experiment [13] the test system is IMR-32. Kind of experiment: Inhibition of cellular AMPK in human IMR-32 cells assessed as reduction in pACC1 levels in cell lysates by HTRF assay.
The nature of experiment [14]: Binding affinity to AMPK (unknown origin) assessed as inhibition constant. On the set-up: species or system Homo sapiens.
Experiment [15] can be described thus: Inhibition of AMPK (unknown origin). On the set-up: species or system Homo sapiens.

Serine/threonine-protein kinase N1 (Homo sapiens), sequence (Q16512 2-942 limits assumed): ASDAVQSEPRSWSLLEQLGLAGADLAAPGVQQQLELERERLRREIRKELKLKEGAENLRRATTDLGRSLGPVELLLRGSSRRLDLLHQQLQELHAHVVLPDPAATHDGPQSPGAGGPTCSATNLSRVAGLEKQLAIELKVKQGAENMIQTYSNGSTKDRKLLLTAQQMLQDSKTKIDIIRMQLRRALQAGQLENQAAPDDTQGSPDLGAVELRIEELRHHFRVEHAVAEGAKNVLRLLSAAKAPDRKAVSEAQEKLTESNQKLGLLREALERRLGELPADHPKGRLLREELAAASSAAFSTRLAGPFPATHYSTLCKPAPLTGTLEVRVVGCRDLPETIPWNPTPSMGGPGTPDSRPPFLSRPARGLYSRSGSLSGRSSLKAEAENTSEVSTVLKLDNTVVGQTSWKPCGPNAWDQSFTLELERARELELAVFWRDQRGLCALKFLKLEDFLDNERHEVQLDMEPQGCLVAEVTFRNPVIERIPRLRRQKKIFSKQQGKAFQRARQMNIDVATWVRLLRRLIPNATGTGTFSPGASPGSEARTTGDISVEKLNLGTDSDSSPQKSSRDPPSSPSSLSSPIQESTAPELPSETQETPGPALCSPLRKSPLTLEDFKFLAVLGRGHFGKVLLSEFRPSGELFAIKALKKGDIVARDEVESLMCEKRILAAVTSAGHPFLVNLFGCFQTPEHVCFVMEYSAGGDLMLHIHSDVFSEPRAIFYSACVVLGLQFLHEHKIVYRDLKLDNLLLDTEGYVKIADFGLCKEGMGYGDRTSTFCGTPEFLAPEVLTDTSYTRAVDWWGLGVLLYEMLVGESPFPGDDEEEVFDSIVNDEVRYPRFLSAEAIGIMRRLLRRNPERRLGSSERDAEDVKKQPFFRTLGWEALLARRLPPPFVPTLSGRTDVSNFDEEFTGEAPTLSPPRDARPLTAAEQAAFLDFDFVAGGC
Leucine-rich repeat serine/threonine-protein kinase 2 (Homo sapiens), sequence (Q5S007 whole entry): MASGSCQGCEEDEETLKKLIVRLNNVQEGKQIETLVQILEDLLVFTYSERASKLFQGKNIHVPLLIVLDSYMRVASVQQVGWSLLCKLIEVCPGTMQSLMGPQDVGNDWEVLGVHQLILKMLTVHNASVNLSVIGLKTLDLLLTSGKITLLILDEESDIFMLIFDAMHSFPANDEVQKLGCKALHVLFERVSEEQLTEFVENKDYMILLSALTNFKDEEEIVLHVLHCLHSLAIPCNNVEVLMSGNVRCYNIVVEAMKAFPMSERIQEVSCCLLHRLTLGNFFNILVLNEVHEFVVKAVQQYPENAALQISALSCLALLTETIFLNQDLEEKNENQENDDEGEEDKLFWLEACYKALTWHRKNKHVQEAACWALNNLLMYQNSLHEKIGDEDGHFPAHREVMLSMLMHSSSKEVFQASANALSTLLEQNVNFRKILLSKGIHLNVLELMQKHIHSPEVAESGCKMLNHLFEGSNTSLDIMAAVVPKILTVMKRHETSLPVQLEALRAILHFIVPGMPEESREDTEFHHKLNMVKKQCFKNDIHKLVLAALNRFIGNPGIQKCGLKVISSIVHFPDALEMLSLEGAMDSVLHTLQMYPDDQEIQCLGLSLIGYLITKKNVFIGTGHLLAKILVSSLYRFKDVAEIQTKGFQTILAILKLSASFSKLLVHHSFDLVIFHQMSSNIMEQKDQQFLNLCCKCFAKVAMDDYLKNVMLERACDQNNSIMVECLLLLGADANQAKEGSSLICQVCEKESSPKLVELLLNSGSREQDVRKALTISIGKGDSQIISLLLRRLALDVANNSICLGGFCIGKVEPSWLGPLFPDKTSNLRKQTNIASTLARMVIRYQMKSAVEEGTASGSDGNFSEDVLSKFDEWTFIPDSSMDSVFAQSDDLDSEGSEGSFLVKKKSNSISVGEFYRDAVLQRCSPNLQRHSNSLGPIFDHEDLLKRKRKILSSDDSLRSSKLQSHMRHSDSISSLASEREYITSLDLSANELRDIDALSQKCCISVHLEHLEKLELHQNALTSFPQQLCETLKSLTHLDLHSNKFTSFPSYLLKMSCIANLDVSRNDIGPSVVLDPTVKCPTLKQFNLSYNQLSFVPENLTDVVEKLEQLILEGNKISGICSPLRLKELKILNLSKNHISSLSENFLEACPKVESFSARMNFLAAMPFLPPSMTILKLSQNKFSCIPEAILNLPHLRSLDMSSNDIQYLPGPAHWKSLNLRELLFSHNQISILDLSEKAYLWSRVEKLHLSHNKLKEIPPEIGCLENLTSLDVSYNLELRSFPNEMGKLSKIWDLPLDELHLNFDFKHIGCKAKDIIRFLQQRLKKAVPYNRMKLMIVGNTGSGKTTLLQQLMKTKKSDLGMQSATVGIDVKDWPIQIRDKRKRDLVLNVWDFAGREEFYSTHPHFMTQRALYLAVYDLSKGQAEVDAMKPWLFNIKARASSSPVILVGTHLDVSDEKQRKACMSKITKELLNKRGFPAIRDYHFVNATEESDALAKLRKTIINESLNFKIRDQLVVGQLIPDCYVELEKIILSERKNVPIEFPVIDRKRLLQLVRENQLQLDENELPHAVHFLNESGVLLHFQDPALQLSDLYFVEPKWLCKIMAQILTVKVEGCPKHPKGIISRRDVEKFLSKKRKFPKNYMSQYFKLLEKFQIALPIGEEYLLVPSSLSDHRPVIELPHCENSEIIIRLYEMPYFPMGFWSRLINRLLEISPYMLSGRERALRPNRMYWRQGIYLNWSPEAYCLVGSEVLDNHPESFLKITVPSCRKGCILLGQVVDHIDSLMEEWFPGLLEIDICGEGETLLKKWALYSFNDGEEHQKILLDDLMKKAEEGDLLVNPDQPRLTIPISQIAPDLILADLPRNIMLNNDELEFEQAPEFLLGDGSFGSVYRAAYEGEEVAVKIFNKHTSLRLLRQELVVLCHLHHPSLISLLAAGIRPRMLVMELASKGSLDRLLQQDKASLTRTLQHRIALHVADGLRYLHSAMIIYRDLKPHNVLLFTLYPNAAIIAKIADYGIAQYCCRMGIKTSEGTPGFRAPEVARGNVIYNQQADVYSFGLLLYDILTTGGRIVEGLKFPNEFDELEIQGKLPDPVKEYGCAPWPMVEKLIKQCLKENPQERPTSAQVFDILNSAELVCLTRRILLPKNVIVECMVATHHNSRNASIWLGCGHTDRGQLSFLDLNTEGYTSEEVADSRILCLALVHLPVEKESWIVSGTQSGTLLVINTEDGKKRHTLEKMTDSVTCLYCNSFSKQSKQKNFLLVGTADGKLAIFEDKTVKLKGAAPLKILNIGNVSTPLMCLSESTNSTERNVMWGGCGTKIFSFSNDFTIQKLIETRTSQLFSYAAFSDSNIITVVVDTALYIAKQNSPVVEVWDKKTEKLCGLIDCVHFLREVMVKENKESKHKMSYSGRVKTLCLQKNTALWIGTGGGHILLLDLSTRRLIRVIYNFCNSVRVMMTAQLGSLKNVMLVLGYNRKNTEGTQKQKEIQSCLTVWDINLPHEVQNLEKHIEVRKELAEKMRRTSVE
5'-AMP-activated protein kinase catalytic subunit alpha-1, sequence (Q13131 whole entry): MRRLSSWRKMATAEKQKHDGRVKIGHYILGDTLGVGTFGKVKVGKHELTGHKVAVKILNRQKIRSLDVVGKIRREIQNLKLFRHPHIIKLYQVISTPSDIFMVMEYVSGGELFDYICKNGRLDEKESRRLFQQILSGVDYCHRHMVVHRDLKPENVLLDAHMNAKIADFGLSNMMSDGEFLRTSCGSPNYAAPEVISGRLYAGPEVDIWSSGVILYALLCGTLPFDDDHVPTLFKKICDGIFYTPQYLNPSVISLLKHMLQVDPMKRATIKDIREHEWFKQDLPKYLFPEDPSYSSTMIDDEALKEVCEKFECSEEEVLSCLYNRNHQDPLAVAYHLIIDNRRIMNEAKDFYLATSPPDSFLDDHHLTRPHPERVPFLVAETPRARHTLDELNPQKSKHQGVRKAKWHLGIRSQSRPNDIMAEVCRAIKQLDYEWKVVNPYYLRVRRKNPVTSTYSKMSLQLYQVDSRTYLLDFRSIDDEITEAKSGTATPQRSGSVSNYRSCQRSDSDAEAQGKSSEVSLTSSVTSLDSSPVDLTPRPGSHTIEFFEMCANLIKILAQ
Epithelial discoidin domain-containing receptor 1 (Homo sapiens), sequence (Q08345 whole entry, the tested form may be a part): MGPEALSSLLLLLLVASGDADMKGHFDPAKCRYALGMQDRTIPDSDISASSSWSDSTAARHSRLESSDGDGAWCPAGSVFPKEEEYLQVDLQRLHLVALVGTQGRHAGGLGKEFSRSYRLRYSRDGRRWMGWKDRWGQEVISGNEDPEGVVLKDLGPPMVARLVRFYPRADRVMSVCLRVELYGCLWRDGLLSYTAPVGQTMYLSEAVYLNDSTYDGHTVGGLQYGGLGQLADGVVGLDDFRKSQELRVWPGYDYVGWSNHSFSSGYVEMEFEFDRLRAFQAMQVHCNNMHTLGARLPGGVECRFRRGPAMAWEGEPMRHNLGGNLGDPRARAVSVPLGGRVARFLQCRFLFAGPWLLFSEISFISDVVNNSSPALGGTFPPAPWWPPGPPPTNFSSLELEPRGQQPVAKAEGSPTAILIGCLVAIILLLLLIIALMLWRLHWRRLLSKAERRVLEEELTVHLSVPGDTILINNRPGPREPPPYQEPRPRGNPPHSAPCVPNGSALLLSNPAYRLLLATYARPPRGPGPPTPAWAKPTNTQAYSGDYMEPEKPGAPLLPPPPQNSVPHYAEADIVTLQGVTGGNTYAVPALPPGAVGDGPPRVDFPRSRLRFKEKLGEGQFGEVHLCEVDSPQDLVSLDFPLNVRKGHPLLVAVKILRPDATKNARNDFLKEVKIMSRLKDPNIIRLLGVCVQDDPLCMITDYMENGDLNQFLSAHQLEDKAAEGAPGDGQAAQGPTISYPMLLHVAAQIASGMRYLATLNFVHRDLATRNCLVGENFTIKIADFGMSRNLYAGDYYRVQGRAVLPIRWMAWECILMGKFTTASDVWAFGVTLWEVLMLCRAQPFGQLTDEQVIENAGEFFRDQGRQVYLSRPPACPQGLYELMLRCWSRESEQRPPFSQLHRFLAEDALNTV

Usually IC50 stands for the concentration needed to halve the response being measured. `CNC(=O)c1ccccc1Oc1nc(Nc2cc(OC)c(OC)c(OC)c2)ncc1Br` displayed an IC50 in experiment [1] of 400 nM.
By inhibition is commonly meant the share of the control response that was lost under treatment. A higher inhibition goes with a response far below the control. `O=C(O)Cc1csc(Nc2ccc(C(F)(F)F)cc2)n1`: the activation in experiment [2], in experiment [3] and in [5] was 30% throughout. The inhibition in experiment [4], in [6] and in experiment [7] was over 50% throughout.
As to `CCc1ccccc1C(=O)Nc1n[nH]c2c(C)c(F)c(C3C(C#N)=C(C)N(C)C(C)=C3C#N)cc12` [BAY-3827], the IC50 in experiment [8] was 1.4 nM; in [9] it was about 100 nM; in experiment [10], about 400 nM; in [11] it was 15 nM; in [12], about 100 nM; in experiment [13] it was about 150 nM.
In general, Ki refers to the dissociation constant of the complex between target and ligand, obtained from inhibition or displacement. With `c1cc(-c2cnn3cc(-c4ccc(OCCN5CCCCC5)cc4)cnc23)ccn1` [DORSOMORPHIN], the Ki in [14] was found to be 109 nM. This molecule had a 50% inhibitory concentration (IC50) in experiment [15] of 2380 nM.
`CCN(CC)CCNC(=O)c1c(C)[nH]c(/C=C2\C(=O)Nc3ccc(F)cc32)c1C` [SUNITINIB] had a half-maximal inhibitory concentration (IC50) in [15] of 40 nM.
